These results are taken from patent US9944607B2, “Thiohydantoin derivatives and uses thereof” (Whitehead Institute for Biomedical Research, priority 2012, dated 2018).

Series [1] can be described thus: Plasma stability, mouse plasma. The series is classed as in vitro ADME. Conditions: 37° C., 5 μM. The method, then: (§1) Plasma stability was determined at 37° C. at 5 hours in both human and mouse plasma. Each compound was prepared in duplicate at 5 μM in plasma diluted 50/50 (v/v) with PBS pH 7.4 (0.95% acetonitrile, 0.05% DMSO). Compounds were incubated at 37° C. for 5 hours with a 250-rpm orbital shake with time points taken at 0 hours and 5 hours.

The nature of series [2]: Plasma stability, human plasma. The series is classed as in vitro ADME. Conditions: 37° C., 5 μM. The method, then: as §1
The nature of series [3]: Plasma protein binding by equilibrium dialysis, mouse plasma. The series is classed as in vitro ADME. Conditions: pH 7.4, murine plasma, 37° C., read-out: Plasma protein binding (% bound), Murine. The method, then: (§2) Plasma protein binding was determined by equilibrium dialysis using the Rapid Equilibrium Dialysis (RED) device (Pierce Biotechnology, Rockford, Ill.) for both human and mouse plasma. Each compound was prepared in duplicate at 5 μM in plasma (0.95% acetonitrile, 0.05% DMSO) and added to one side of the membrane (200 μL) with PBS pH 7.4 added to the other side (350 μL). Compounds were incubated at 37° C. for 5 hours with a 250-rpm orbital shake.

Series [4] in a line: Plasma protein binding by equilibrium dialysis, human plasma. The series is classed as in vitro ADME. Conditions: pH 7.4, 37° C., read-out: Plasma protein binding (% bound), Human (converted). The method, then: as §2
For orientation: In equilibrium dialysis only unbound substance equilibrates across the membrane.

Series [5] has as its system Candida albicans CaCi-2. The series can be described thus: Primary assay: C. albicans CaCi-2 growth inhibition (Alamar Blue). The class given is cell-based. (In general: Alamar Blue is a resazurin reagent that responds to reducing activity.)
Series [6] deals with NIH-3T3 mammalian fibroblasts. The series can be described thus: Counterscreen mammalian cell toxicity assay (Alamar Blue). The class given is cell-based, murine. Conditions: Mus musculus, NIH3T3, Tables 9, 10, 12; AID 602394; read-out: Murine 3T3 fibroblasts growth inhibition (fibroblast toxicity) IC50. In outline: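 Quiescent NIH-3T3 fibroblasts, cultured overnight, exposed to 100 nL pinned compound for 48 h at 37° C, 5% CO2. Alamar Blue added to 1:200 final, 2-3 h further incubation; fluorescence (RFU) read as relative cell growth.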
A general note: The purpose of a counterscreen is to sort out artefacts and off-target activity.

In series [7] the test system is Candida albicans CaCi-17. The series can be described thus: Primary assay: C. albicans CaCi-17 growth inhibition (Alamar Blue). The series is classed as cell-based. Conditions: Candida albicans, CACI17, Tables 9, 10, 12; AID 623897; read-out: C. albicans CaCi-17 growth inhibition IC50.
Series [8] deals with mitochondrial function. Conditions: FIG. 1 legend, known inhibitors; cited from earlier work.

A value given as a limit tells only on which side of the number the result lay.

For the compound `Cc1ccc(N2C(=S)N(C)C(=O)C23CCCCC3)cc1` [CID 56604835], in series [1], the “Plasma stability (% remaining after 5 hours), Murine” value is 96.6%. Besides, the “Plasma stability (% remaining after 5 hours), Human” value in series [2] was 95.7%. The values for the fraction unbound at 5 h, 5 μM in series [3] and in series [4] were 0.001 and 0.014, respectively. Moreover, in series [5] (CaCi-2, or both test strains (CaCi-2, CaCi-17) where the sentence names none), the “Activity against C. albicans” value is recorded as “no activity”.
For orientation: IC50 means the point on the concentration scale where inhibition reaches its midpoint. Take `CCOC(=O)N1C(=O)C2(CCCCC2)N(c2ccc(C)cc2)C1=S` [CID 3889161]: the “Plasma stability (% remaining after 5 hours), Murine” value in series [1] is given as less than 1.0%. Moreover, in series [2], the “Plasma stability (% remaining after 5 hours), Human” value is recorded as less than 1.0%. In addition, the 50% inhibitory concentration (IC50) in series [6] was greater than 26 µM; in series [5] (Candida albicans, CACI2, Tables 9, 10, 12, AID 623899, read-out: C. albicans CaCi-2 growth inhibition IC50), 0.3 µM; in series [7] it was 8.5 µM.
With Antimycin, in series [8], the “Inhibition of mitochondrial function (in words)” value is on record as “potent, but non-selective”.
